Laboratory results as given in PubChem BioAssay AID1963961 (Molecular Pharmacology Branch, DTP, NCI, 2024).
Blank lines part the entries; values can stand above or below the compound they belong to.

System: K98450-129-R-PDC multicell spheroids, viability
Experiment: Anticancer human tumor K98450-129-R-PDC patient-derived colon adenocarcinoma cell line growth inhibition [PI3K]
Details: for IC50: curve of first compound; for viability, T/C: stronger effect = lower value
Method in brief: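 Viability of mixed-cell spheroids was determined after exposure to pairwise combinations, one partner being inavolisib, alpelisib, duvelisib or copanlisib. Highest tested concentration matched clinical Cmax where known and 10 microM where not, descending in half-log steps.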

[1] = second compound 0.0316 µM, first compound 0.0316 µM
[2] = second compound 0.0316 µM, first compound 0.1 µM
[3] = second compound 0.0316 µM, first compound 0.316 µM
[4] = second compound 0.0316 µM, first compound 1 µM
[5] = second compound 0.0316 µM, first compound 3.16 µM
[6] = second compound 0.0316 µM, first compound 10 µM
[7] = second compound 0.1 µM, first compound 0.0316 µM
[8] = second compound 0.1 µM, first compound 0.1 µM
[9] = second compound 0.1 µM, first compound 0.316 µM
[10] = second compound 0.1 µM, first compound 1 µM
[11] = second compound 0.1 µM, first compound 3.16 µM
[12] = second compound 0.1 µM, first compound 10 µM
[13] = second compound 0.316 µM, first compound 0.0316 µM
[14] = second compound 0.316 µM, first compound 0.1 µM
[15] = second compound 0.316 µM, first compound 0.316 µM
[16] = second compound 0.316 µM, first compound 1 µM
[17] = second compound 0.316 µM, first compound 3.16 µM
[18] = second compound 0.316 µM, first compound 10 µM
[19] = second compound 1 µM, first compound 0.0316 µM
[20] = second compound 1 µM, first compound 0.1 µM
[21] = second compound 1 µM, first compound 0.316 µM
[22] = second compound 1 µM, first compound 1 µM
[23] = second compound 1 µM, first compound 3.16 µM
[24] = second compound 1 µM, first compound 10 µM
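Further: spheroids exposed to agents for seven days before read-out.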

- IC50 (second compound 0.00316 µM): > 10 µM
- IC50 (second compound 0.01 µM): > 10 µM
- IC50 (second compound 0.0316 µM): > 10 µM
- IC50 (second compound 0.1 µM): > 10 µM
- IC50 (second compound 0.316 µM): > 10 µM
- IC50 (second compound 1 µM): > 10 µM
Compound: CC1(C)CCC(Nc2ncc(C(F)(F)F)c(-c3c[nH]c4c(P(C)(C)=O)c(C#N)ccc34)n2)CN1 (stereo unspecified) + CC(Nc1ccc2c(c1)OCCn1cc(N3C(=O)OCC3C(F)F)nc1-2)C(N)=O
- viability, T/C (second compound 0.00316 µM, first compound 0.0316 µM): 108%
- viability, T/C (second compound 0.00316 µM, first compound 0.1 µM): 103%
- viability, T/C (second compound 0.00316 µM, first compound 0.316 µM): 95.8%
- viability, T/C (second compound 0.00316 µM, first compound 1 µM): 67.7%
- viability, T/C (second compound 0.00316 µM, first compound 3.16 µM): 64.1%
- viability, T/C (second compound 0.00316 µM, first compound 10 µM): 63.8%
- viability, T/C (second compound 0.01 µM, first compound 0.0316 µM): 116%
- viability, T/C (second compound 0.01 µM, first compound 0.1 µM): 98.2%
- viability, T/C (second compound 0.01 µM, first compound 0.316 µM): 92.7%
- viability, T/C (second compound 0.01 µM, first compound 1 µM): 68.9%
- viability, T/C (second compound 0.01 µM, first compound 3.16 µM): 67.2%
- viability, T/C (second compound 0.01 µM, first compound 10 µM): 62.2%
- viability, T/C [1]: 116%
- viability, T/C [2]: 109%
- viability, T/C [3]: 81.5%
- viability, T/C [4]: 66.8%
- viability, T/C [5]: 69.3%
- viability, T/C [6]: 65.5%
- viability, T/C [7]: 105%
- viability, T/C [8]: 107%
- viability, T/C [9]: 82.6%
- viability, T/C [10]: 66.9%
- viability, T/C [11]: 67.8%
- viability, T/C [12]: 61.2%
- viability, T/C [13]: 100%
- viability, T/C [14]: 101%
- viability, T/C [15]: 85.4%
- viability, T/C [16]: 69.3%
- viability, T/C [17]: 66.7%
- viability, T/C [18]: 60.7%
- viability, T/C [19]: 91.9%
- viability, T/C [20]: 90.1%
- viability, T/C [21]: 79.1%
- viability, T/C [22]: 67.5%
- viability, T/C [23]: 69.6%
- viability, T/C [24]: 60.6%

- IC50 (second compound 0.0316 µM): > 10 µM
- IC50 (second compound 0.1 µM): > 10 µM
- IC50 (second compound 0.316 µM): > 10 µM
- IC50 (second compound 1 µM): > 10 µM
- IC50 (second compound 3.16 µM): > 10 µM
- IC50 (second compound 10 µM): > 10 µM
Compound: CNC(=O)c1ccc(N2C(=S)N(c3ccc(C#N)c(C(F)(F)F)c3)C(=O)C2(C)C)cc1F + CC(Nc1ncnc2nc[nH]c12)c1cc2cccc(Cl)c2c(=O)n1-c1ccccc1
- viability, T/C [1]: 109%
- viability, T/C [2]: 100%
- viability, T/C [3]: 104%
- viability, T/C [4]: 83.1%
- viability, T/C [5]: 104%
- viability, T/C [6]: 88.9%
- viability, T/C [7]: 116%
- viability, T/C [8]: 94%
- viability, T/C [9]: 106%
- viability, T/C [10]: 108%
- viability, T/C [11]: 88.8%
- viability, T/C [12]: 101%
- viability, T/C [13]: 104%
- viability, T/C [14]: 99.3%
- viability, T/C [15]: 97.2%
- viability, T/C [16]: 92.3%
- viability, T/C [17]: 112%
- viability, T/C [18]: 109%
- viability, T/C [19]: 92.8%
- viability, T/C [20]: 90.7%
- viability, T/C [21]: 95.5%
- viability, T/C [22]: 102%
- viability, T/C [23]: 99.8%
- viability, T/C [24]: 97.1%
- viability, T/C (second compound 3.16 µM, first compound 0.0316 µM): 83.1%
- viability, T/C (second compound 3.16 µM, first compound 0.1 µM): 95.4%
- viability, T/C (second compound 3.16 µM, first compound 0.316 µM): 82%
- viability, T/C (second compound 3.16 µM, first compound 1 µM): 83.1%
- viability, T/C (second compound 3.16 µM, first compound 3.16 µM): 87.6%
- viability, T/C (second compound 3.16 µM, first compound 10 µM): 96.6%
- viability, T/C (second compound 10 µM, first compound 0.0316 µM): 76.8%
- viability, T/C (second compound 10 µM, first compound 0.1 µM): 93.4%
- viability, T/C (second compound 10 µM, first compound 0.316 µM): 83%
- viability, T/C (second compound 10 µM, first compound 1 µM): 96.1%
- viability, T/C (second compound 10 µM, first compound 3.16 µM): 109%
- viability, T/C (second compound 10 µM, first compound 10 µM): 88%

- IC50 (second compound 0.0316 µM): 0.897 µM
- IC50 (second compound 0.1 µM): 0.984 µM
- IC50 (second compound 0.316 µM): 0.909 µM
- IC50 (second compound 1 µM): 0.699 µM
- IC50 (second compound 3.16 µM): 0.822 µM
- IC50 (second compound 10 µM): 0.725 µM
Compound: Cn1cnc2c(F)c(Nc3ccc(Br)cc3Cl)c(C(=O)NOCCO)cc21 + CC(Nc1ncnc2nc[nH]c12)c1cc2cccc(Cl)c2c(=O)n1-c1ccccc1
- viability, T/C (second compound 0.0316 µM, first compound 0.00949 µM): 95.4%
- viability, T/C (second compound 0.0316 µM, first compound 0.03 µM): 99.9%
- viability, T/C (second compound 0.0316 µM, first compound 0.0949 µM): 86.3%
- viability, T/C (second compound 0.0316 µM, first compound 0.3 µM): 70.7%
- viability, T/C (second compound 0.0316 µM, first compound 0.949 µM): 50.1%
- viability, T/C (second compound 0.0316 µM, first compound 3 µM): 24.9%
- viability, T/C (second compound 0.1 µM, first compound 0.00949 µM): 99.5%
- viability, T/C (second compound 0.1 µM, first compound 0.03 µM): 88.6%
- viability, T/C (second compound 0.1 µM, first compound 0.0949 µM): 82.2%
- viability, T/C (second compound 0.1 µM, first compound 0.3 µM): 91.5%
- viability, T/C (second compound 0.1 µM, first compound 0.949 µM): 50.9%
- viability, T/C (second compound 0.1 µM, first compound 3 µM): 24.2%
- viability, T/C (second compound 0.316 µM, first compound 0.00949 µM): 100%
- viability, T/C (second compound 0.316 µM, first compound 0.03 µM): 103%
- viability, T/C (second compound 0.316 µM, first compound 0.0949 µM): 80.2%
- viability, T/C (second compound 0.316 µM, first compound 0.3 µM): 65%
- viability, T/C (second compound 0.316 µM, first compound 0.949 µM): 57.2%
- viability, T/C (second compound 0.316 µM, first compound 3 µM): 16%
- viability, T/C (second compound 1 µM, first compound 0.00949 µM): 89.8%
- viability, T/C (second compound 1 µM, first compound 0.03 µM): 78.4%
- viability, T/C (second compound 1 µM, first compound 0.0949 µM): 77.3%
- viability, T/C (second compound 1 µM, first compound 0.3 µM): 71.7%
- viability, T/C (second compound 1 µM, first compound 0.949 µM): 41.9%
- viability, T/C (second compound 1 µM, first compound 3 µM): 22.2%
- viability, T/C (second compound 3.16 µM, first compound 0.00949 µM): 92.8%
- viability, T/C (second compound 3.16 µM, first compound 0.03 µM): 80.4%
- viability, T/C (second compound 3.16 µM, first compound 0.0949 µM): 80.9%
- viability, T/C (second compound 3.16 µM, first compound 0.3 µM): 57.9%
- viability, T/C (second compound 3.16 µM, first compound 0.949 µM): 55.9%
- viability, T/C (second compound 3.16 µM, first compound 3 µM): 15.5%
- viability, T/C (second compound 10 µM, first compound 0.00949 µM): 87.8%
- viability, T/C (second compound 10 µM, first compound 0.03 µM): 85.6%
- viability, T/C (second compound 10 µM, first compound 0.0949 µM): 70%
- viability, T/C (second compound 10 µM, first compound 0.3 µM): 76.4%
- viability, T/C (second compound 10 µM, first compound 0.949 µM): 42%
- viability, T/C (second compound 10 µM, first compound 3 µM): 14.1%
